Values after ≈ are worked out from the molar mass of the structure shown.
Experiments:
Experiment in all cases: MIC, CLSI broth microdilution
Assay type in all cases: cell-based
[1] = test system: S. pneumoniae ASPN1027 (Fluoroquinolone-resistant); settings: for MIC: Streptococcus pneumoniae, Table 2, read-out: MIC ASPN 1027; for MIC ASPN 1027: Table 2
Protocol: (§1) Minimum inhibitory concentrations (MIC) were determined by reference Clinical and Laboratory Standards Institute (CLSI) broth microdilution methods per M7-A7 [2006]. Quality control ranges utilizing E. coli ATCC 25922, P. aeruginosa ATCC 27853 and S. aureus ATCC 29213, and interpretive criteria for comparator agents were as published in CLSI M100-S17 [2007]. Briefly, serial two-fold dilutions of the test compounds were prepared at 2× concentration in Mueller Hinton Broth. The compound dilutions were mixed in 96-well assay plates in a 1:1 ratio with bacterial inoculum. The inoculum was prepared by suspension of a colony from an agar plate that was prepared the previous day. Bacteria were suspended in sterile saline and added to each assay plate to obtain a final concentration of 5×10^5 CFU/mL. The plates were incubated at 35° C. for 20 hours in ambient air.

[2] = test system: E. coli AECO001 (Fluoroquinolone susceptible, ATCC25922); settings: Table 2, 35° C., 20 hours; for MIC: Escherichia coli, read-out: MIC AECO 001
Protocol: as §1

[3] = test system: S. aureus ASAU001 (Fluoroquinolone-susceptible, ATCC29213); settings: for MIC: Staphylococcus aureus, Table 2, read-out: MIC ASAU 001; for MIC ASAU 001: Table 2
Protocol: as §1

[4] = test system: A. baumannii AABA1009 (Fluoroquinolone-resistant); settings: for MIC: Acinetobacter baumannii, Table 2, read-out: MIC AABA 1009; for MIC AABA 1009: Table 2
Protocol: as §1

[5] = test system: P. aeruginosa APAE001 (Fluoroquinolone-susceptible, ATCC27853); settings: for MIC: Pseudomonas aeruginosa, Table 2, read-out: MIC APAE 001; for MIC APAE 001: Table 2
Protocol: as §1

[6] = test system: A. baumannii AABA1065 (Fluoroquinolone-susceptible); settings: for MIC: Acinetobacter baumannii, Table 2, read-out: MIC AABA 1065; for MIC AABA 1065: Table 2
Protocol: as §1

[7] = test system: S. pneumoniae ASPN001 (Fluoroquinolone-susceptible, ATCC49619); settings: for MIC: Streptococcus pneumoniae, Table 2, read-out: MIC ASPN 001; for MIC ASPN 001: Table 2
Protocol: as §1

[8] = test system: S. aureus ASAU1031 (Fluoroquinolone-resistant); settings: for MIC: Staphylococcus aureus, Table 2, read-out: MIC ASAU 1031; for MIC ASAU 1031: Table 2
Protocol: as §1

[9] = test system: P. aeruginosa APAE054 (Fluoroquinolone-resistant); settings: for MIC: Pseudomonas aeruginosa, Table 2, read-out: MIC APAE 054; for MIC APAE 054: Table 2
Protocol: as §1

[10] = test system: E. coli AECO066 (Fluoroquinolone-resistant); settings: for MIC: Escherichia coli, Table 2, read-out: MIC AECO 066; for MIC AECO 066: Table 2
Protocol: as §1

SMILES	MIC [1] [µg/mL]	MIC [2] [µg/mL]	MIC [3] [µg/mL]	MIC [4] [µg/mL]	MIC [5] [µg/mL]	MIC [6] [µg/mL]	MIC [7] [µg/mL]	MIC [8] [µg/mL]	MIC [9] [µg/mL]	MIC [10] [µg/mL]	MIC ASPN 1027 [1]	MIC AECO 001 [2]	MIC ASAU 001 [3]	MIC AABA 1009 [4]	MIC APAE 001 [5]	MIC AABA 1065 [6]	MIC ASPN 001 [7]	MIC ASAU 1031 [8]	MIC APAE 054 [9]	MIC AECO 066 [10]
CO/N=C1\CN(c2nc3c(cc2F)c(=O)c(C(=O)O)cn3C2CC2)CC1CN (stereo not shown) [Gemifloxacin, reference compound]	1 to 8 (≈ 2.57 to 20.5 µM)	≤ 1	≤ 1	> 8	≤ 1	≤ 1	≤ 1	> 8	> 8	> 8										
O=C1Cc2c(c(F)cc3c(=O)c(C(=O)O)cn(C4CC4)c23)N2CCCC2C1 (stereo not shown) [27/10, 4-Cyclopropyl-12-fluoro-1,6-dioxo-4,5,6,7,7a,8,9,10-octahydro-1H-pyrrolo[1′,2′:1,7]azepino[2,3-h]quinoline-2-carboxylic acid]											C (MIC's of greater than 8.0 μg/mL = C)	B (MIC's of greater than 1.0 μg/mL to 8.0 μg/mL = B)	B (MIC's of greater than 1.0 μg/mL to 8.0 μg/mL = B)	C (MIC's of greater than 8.0 μg/mL = C)	C (MIC's of greater than 8.0 μg/mL = C)	B (MIC's of greater than 1.0 μg/mL to 8.0 μg/mL = B)	C (MIC's of greater than 8.0 μg/mL = C)	C (MIC's of greater than 8.0 μg/mL = C)	C (MIC's of greater than 8.0 μg/mL = C)	C (MIC's of greater than 8.0 μg/mL = C)
CCNC1CC2CCCc3c(c(F)cc4c(=O)c(C(=O)O)cn(C5CC5)c34)N2C1.O=C(O)C(F)(F)F (mixture of isomers) [7B/20, (9S)-4-cyclopropyl-9-(ethylamino)-12-fluoro-1-oxo-4,5,6,7,7a,8,9,10-octahydro-1H-pyrrolo[1′,2′:1,7]-azepino[2,3-h]quinoline-2-carboxylic acid trifluoroacetate]											C (MIC's of greater than 8.0 μg/mL = C)	A (MIC's of 1.0 μg/mL or less = A)	A (MIC's of 1.0 μg/mL or less = A)	C (MIC's of greater than 8.0 μg/mL = C)	B (MIC's of greater than 1.0 μg/mL to 8.0 μg/mL = B)	A (MIC's of 1.0 μg/mL or less = A)	A (MIC's of 1.0 μg/mL or less = A)	B (MIC's of greater than 1.0 μg/mL to 8.0 μg/mL = B)	C (MIC's of greater than 8.0 μg/mL = C)	C (MIC's of greater than 8.0 μg/mL = C)
CC(=O)N1Cc2c(c(F)cc3c(=O)c(C(=O)O)cn(C4CC4)c23)N2CCCC2C1 (stereo not shown) [14/4, 2-Acetyl-13-cyclopropyl-8-fluoro-10-oxo-2,3,3a,4,5,6,10,13-octahydro-1H-pyrrolo[2′,1′:3,4][1,4]diazepino[5,6-h]quinoline-11-carboxylic acid]											C (MIC's of greater than 8.0 μg/mL = C)	B (MIC's of greater than 1.0 μg/mL to 8.0 μg/mL = B)	C (MIC's of greater than 8.0 μg/mL = C)	C (MIC's of greater than 8.0 μg/mL = C)	C (MIC's of greater than 8.0 μg/mL = C)	C (MIC's of greater than 8.0 μg/mL = C)	C (MIC's of greater than 8.0 μg/mL = C)	C (MIC's of greater than 8.0 μg/mL = C)	C (MIC's of greater than 8.0 μg/mL = C)	C (MIC's of greater than 8.0 μg/mL = C)
N[C@H]1CC2CC=Cc3c(c(F)cc4c(=O)c(C(=O)O)cn(C5CC5)c34)N2C1 (stereo partly shown) [32 /5]	1 to 8 (≈ 2.71 to 21.7 µM)	≤ 1	≤ 1	> 8	≤ 1	≤ 1	≤ 1	1 to 8 (≈ 2.71 to 21.7 µM)	> 8	> 8										
N[C@H]1C[C@H]2CCOc3c(c(F)cc4c(=O)c(C(=O)O)cn(C5CC5)c34)N2C1 [32/2]	> 8	≤ 1	≤ 1	> 8	≤ 1	≤ 1	≤ 1	> 8	> 8	> 8										
O=C(O)c1cn(C2CC2)c2c3c(c(F)cc2c1=O)N1CCCC1CCO3 (stereo not shown) [32/1]	> 8	≤ 1	≤ 1	> 8	> 8	1 to 8 (≈ 2.79 to 22.3 µM)	1 to 8 (≈ 2.79 to 22.3 µM)	> 8	> 8	> 8										
N[C@H]1C[C@H]2CC=Cc3c(ccc4c(=O)c(C(=O)O)cn(C5CC5)c34)N2C1 [25/14, (7aR,9S)-9-amino-4-cyclopropyl-1-oxo-4,7,7a,8,9,10-hexahydro-1H-pyrrolo[1′,2′:1,7]azepino[2,3-h]quinoline-2-carboxylic Acid]											B (MIC's of greater than 1.0 μg/mL to 8.0 μg/mL = B)	A (MIC's of 1.0 μg/mL or less = A)	A (MIC's of 1.0 μg/mL or less = A)	C (MIC's of greater than 8.0 μg/mL = C)	B (MIC's of greater than 1.0 μg/mL to 8.0 μg/mL = B)	A (MIC's of 1.0 μg/mL or less = A)	A (MIC's of 1.0 μg/mL or less = A)	C (MIC's of greater than 8.0 μg/mL = C)	C (MIC's of greater than 8.0 μg/mL = C)	C (MIC's of greater than 8.0 μg/mL = C)
O=C(O)c1cn(C2CC2)c2c3c(c(F)cc2c1=O)N1CCCC1CCC3 (stereo not shown) [27/7, 4-Cyclopropyl-12-fluoro-1-oxo-4,5,6,7,7a,8,9,10-octahydro-1H-pyrrolo[1′,2′:1,7]azepino[2,3-h]quinoline-2-carboxylic acid]											C (MIC's of greater than 8.0 μg/mL = C)	B (MIC's of greater than 1.0 μg/mL to 8.0 μg/mL = B)	A (MIC's of 1.0 μg/mL or less = A)	C (MIC's of greater than 8.0 μg/mL = C)	C (MIC's of greater than 8.0 μg/mL = C)	C (MIC's of greater than 8.0 μg/mL = C)	B (MIC's of greater than 1.0 μg/mL to 8.0 μg/mL = B)	B (MIC's of greater than 1.0 μg/mL to 8.0 μg/mL = B)	C (MIC's of greater than 8.0 μg/mL = C)	C (MIC's of greater than 8.0 μg/mL = C)
O=C1CC2CCCN2c2c(F)cc3c(=O)c(C(=O)O)cn(C4CC4)c3c2N1 (stereo not shown) [32/3]		> 8	> 8		> 8	> 8				> 8										
O=C(O)c1cn(C2CC2)c2c3c(c(F)cc2c1=O)N1CCCC1CO3 (stereo not shown) [Comparative Compound 1, reference compound]		> 8	1 to 8 (≈ 2.9 to 23.2 µM)		> 8	> 8				> 8										

From patent publication US20120058989A1, “ANTIBACTERIAL FLUOROQUINOLONE ANALOGS” (Achaogen, Inc., priority 2008, published 2012)
